The source of these data is patent publication US20230302042A1, “METHODS FOR THE PREVENTION OF CHOLESTEROL CRYSTAL EMBOLIZATION WITH CYCLODEXTRINS” (Beren Therapeutics P.B.C., priority 2020, published 2023).

The conditions of assay [1]: human subject; intravenous doses 500-1,000 mg/kg every 4 weeks; FIGS. 2A-2C. Here is the method:
(§1) A human subject was treated with 2-hydroxypropyl-beta-cyclodextrin with single-ascending doses administered intravenously every 4 weeks according to Table 1 below.
(§2) In this Example, a human subject was treated with 2-hydroxypropyl-beta-cyclodextrin according to Example 1, and plasma levels of 24S-hydroxycholesterol and 27-hydroxycholesterol were measured. […] 27-hydroxycholesterol is an endogenous LXR ligand leading to a downstream anti-inflammatory gene signature which may, in some embodiments, address the detrimental inflammatory response via NLRP3 inflammasome effects of cholesterol crystal embolization. The elevated 27-hydroxycholesterol is also a cellular marker of macrophage activation and increased activity for cholesterol crystal phagocytosis and clearance.

Assay [2] concerns 24S-hydroxycholesterol. The settings on record: human subject; intravenous doses 500-1,000 mg/kg every 4 weeks; FIGS. 2A-2C. The method, then: as §1, §2
The test system of assay [3] is 27-hydroxycholesterol. The settings on record: human subject; intravenous doses 500-1,000 mg/kg every 4 weeks; FIGS. 2A-2C. Here is the method:
as §1, §2

For assay [4] the following is noted: pre-dose human blood plasma incubated ex vivo with the cyclodextrin; FIG. 1B. Here is the method: For each dose, whole blood was collected pre-dose, post-dose (line flush), 1 hour post-dose, and 24 hours post-dose. Plasma was separated from the whole blood and subjected to a cholesterol crystal dissolution capacity (CCDC) assay using techniques similar to those described in the literature. The CCDC assay measures the ability of a sample to dissolve cholesterol crystals.
Blood plasma pre-dose was also incubated ex vivo with 2-hydroxypropyl-beta-cyclodextrin and the ability of the plasma to dissolve cholesterol crystals was measured.

The conditions of assay [5]: human subject; single-ascending intravenous doses 500, 750, 1,000, 1,000 mg/kg every 4 weeks; plasma pre-dose, post-dose, 1 hour and 24 hours post-dose; FIG. 1A. Here is the method:
A human subject was treated with 2-hydroxypropyl-beta-cyclodextrin with single-ascending doses administered intravenously every 4 weeks according to Table 1 below. […] For each dose, whole blood was collected pre-dose, post-dose (line flush), 1 hour post-dose, and 24 hours post-dose. Plasma was separated from the whole blood and subjected to a cholesterol crystal dissolution capacity (CCDC) assay using techniques similar to those described in the literature. The CCDC assay measures the ability of a sample to dissolve cholesterol crystals.

In assay [6] the test system is ABCA1. As to conditions: human subject; intravenous doses 500-1,000 mg/kg every 4 weeks; peripheral blood; FIGS. 3A-3D. The method, then:
as §1
(§3) In this Example, a human subject was treated with 2-hydroxypropyl-beta-cyclodextrin according to Example 1, and mRNA levels of the LXR transcription factor-regulated genes, ABCA1 and ABCG1, were measured. […] ABCA1 and ABCG1 are important cholesterol transporters and are responsible for cholesterol efflux from cells, loading of HDL particles for reverse cholesterol transport (RCT), and excretion via the hepatic pathway, to potentially reduce the cholesterol and cholesterol crystal emboli released into the vasculature and stabilize ruptured atherosclerotic plaque.

The subject of assay [7] is ABCG1. The settings on record: human subject; intravenous doses 500-1,000 mg/kg every 4 weeks; peripheral blood; FIGS. 3A-3D. The method, then: as §1, §3

Take 2-hydroxypropyl-beta-cyclodextrin: the “total cholesterol levels in plasma” value in assay [1] is reported as “remained stable”. Besides, the “plasma level of 24S-hydroxycholesterol” value in assay [2] is given as “increased plasma levels”. Moreover, the “plasma level of 27-hydroxycholesterol” value in assay [3] is reported as “increased plasma levels”. Further, in assay [4], the “capacity of plasma to dissolve cholesterol crystals after ex vivo incubation” value is recorded as “increased capacity”. In assay [5], the “capability of blood plasma to dissolve cholesterol crystals (CCDC) after treatment” value was “increased capability”. Moreover, in assay [6], the “mRNA level of ABCA1” value is on record as “increased mRNA levels”. For the same substance, the “mRNA level of ABCG1” value in assay [7] is listed as “increased mRNA levels”.
